# In patent US20240415790A1, “A COMPOSITION FOR USE IN THE TREATMENT OF INTERVERTEBRAL DISC HERNIATION” (STAYBLE THERAPEUTICS AB, priority 2020, published 2024):
# Assays:
# [1] = test system: porcine lumbar spine (L3/4 IVD); assay: Flexural rigidity of the isolated porcine lumbar spine after intradiscal LA (series 1); assay type: in vivo, pig; details: 28 days
# Experimental: The pigs were pre-medicated by intramuscular injection of dexmedetomidin (Domitor®vet, Orion Pharma, Sollentuna, Sweden) and a commercial mixture of zolazepam and tiletamine (Zoletil®vet 100, Virbac, Carros, France) in conventional doses. Anesthesia was maintained by buprenophine ([…], Orion Pharma) 0.03 mg/kg intramuscularly, carpofen (Rimadyl®vet, Orion Pharma) 4 mg/kg intravenously and isoflurane ([…] Pharma AB, Stockholm, Sweden) using a Servo 900 respirator (Siemens, Munich, Germany). Before recovering from anesthesia, atipamezol (Antisedan®vet, Orion Pharma) was given intramuscularly. On the first three days after surgery the pigs received oral carprofen 2 mg/kg twice daily. The pigs were placed on the right side. […] The concentration was determined based on the pilot experiments on the effects of LA on collagen secretion from human NP cells (as described in WO 2017/046030). […] The height and width of normally appearing NP (FIG. 6a) in the anteroposterior (short vertical double arrow) and bilateral (short horizontal double arrow) directions, respectively, were measured and expressed in relation to the height (long vertical double arrow), and width (long horizontal double arrow) of the IVD. […] The distances between the lateral processes of the vertebrae cranially and caudally to the injected IVD was measured with a caliper at full ipsi- or contralateral flexion. […]
# [2] = test system: collagen II; assay: Immunohistochemical analysis of collagen II in porcine IVD; assay type: in vivo; details: pig, LA 60 mg/mL, treated vs untreated IVDs
# Experimental: Since effects of LA on the NP in the subsequent clinical study was planned to be assessed using MRI, the third series focused on the effects of LA (0.2 mL, 60 mg/mL) on sclerotization as measured by T2-weighted MRI. In addition, effects of LA on the expression of collagen I and II were studied by immunohistochemistry (IHC). The macroscopic changes after LA at 60 mg/mL were similar to those described above. The tissue was dehydrated in graded ethanol and embedded in paraffin. Sections were cut on a microtome, dewaxed, and incubated with polyclonal primary antibodies against collagen I (Abcam 34710) or II (Abcam 34712). The antibodies were diluted 250 (collagen I) or 200 (collagen II) times in phosphate-buffered saline containing 1% bovine serum albumin. Incubation was done at room temperature for 60 min. The sections were then incubated for 30 min at room temperature with horseradish peroxidase-conjugated secondary antibodies (Mach 2 Uni HRP, Biocare Medical) and immunoreactivity was visualized using diaminobenzidine (Biocare Medical).
structure (smiles),measurement,setting,value
"CC(O)C(=O)O (stereo not drawn) [LA, lactic acid]","Flexural rigidity (mm, mean ± SD)","[1]; pig L3/4 IVD, 0.2 mL LA 120 mg/mL intradiscal, n=6, difference of process distances at full flexion (lower = stiffer)",2.7 ± 1.1 mm
same,"Flexural rigidity, LA- vs placebo-injected and naive IVDs","[1]; pig, LA 120 mg/mL",marked difference in flexural rigidity
same,Collagen II immunoreactivity,[2],no clear difference
